# Laboratory results: patent publication US10227358B2, “Hydroxyester derivatives, a process for their preparation and pharmaceutical compositions containing them” (LES LABORATOIRES SERVIER, priority 2015, dated 2019)
# How the values were obtained:
# [1] = target: Mcl-1 protein (UniProtKB Q07820) (Homo sapiens, UniProt Q07820); experiment: Inhibition of Mcl-1 by the fluorescence polarisation technique; format: binding; settings: fluorescein labelled ligand 1 nM, Mcl-1 protein 5 nM, ~2 hours at room temperature; read-out: IC50 (μM) Mcl-1 FP
# Sequence of Mcl-1 protein (Q07820 whole entry): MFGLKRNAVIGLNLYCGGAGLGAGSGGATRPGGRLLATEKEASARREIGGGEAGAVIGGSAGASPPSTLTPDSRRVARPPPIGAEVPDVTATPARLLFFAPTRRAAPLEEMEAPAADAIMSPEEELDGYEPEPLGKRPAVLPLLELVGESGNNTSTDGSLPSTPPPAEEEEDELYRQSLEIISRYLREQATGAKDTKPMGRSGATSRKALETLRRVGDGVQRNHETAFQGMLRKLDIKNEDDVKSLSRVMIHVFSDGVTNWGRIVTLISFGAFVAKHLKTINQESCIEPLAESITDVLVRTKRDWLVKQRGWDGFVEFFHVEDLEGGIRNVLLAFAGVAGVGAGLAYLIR
# Procedure: The relative binding potency of each compound was determined via Fluorescence Polarisation (FP). The method utilised a Fluorescein labelled ligand (Fluorescein-βAla-Ahx-A-REIGAQLRRMADDLNAQY-OH; mw 2,765) which binds to the Mcl-1 protein (such that Mcl-1 corresponds to the UniProtKB® primary accession number: Q07820) leading to an increased anisotropy measured in milli-polarisation (mP) units using a reader. The addition of a compound which binds competitively to the same site as the ligand will result in a greater proportion of unbound ligand in the system indicated by a decrease in mP units.
# An 11 point serial dilution of each compound was prepared in DMSO and 2 μl transferred into flat bottomed, low binding, 384-well plate (final DMSO concentration 5%). 38 μl of buffer (10 mM 4-(2-hydroxyethyl)-1-piperazineethanesulfonic acid [HEPES], 150 mM NaCl, 0.05% Tween 20, pH 7.4), containing the Fluorescein labelled ligand (final concentration 1 nM) and Mcl-1 protein (final concentration 5 nM) was then added.
# Assay plates were incubated ˜2 hours at room temperature before FP was measured on a […] Synergy2 reader (Ex. 528 nm, Em. 640 nm, Cut off 510 nm) and mP units calculated. The binding of increasing doses of test compound was expressed as a percentage reduction in mP compared to a window established between ‘5% DMSO only’ and ‘100% inhibition’ controls. 11-point dose response curves were plotted with XL-Fit software using a 4-Parameter Logistic Model (Sigmoidal Dose-Response Model) and the inhibitory concentrations that gave a 50% reduction in mP (IC50) were determined.
# [2] = test system: H929 multiple myeloma tumour line; experiment: In vitro cytotoxicity (MTT, Microculture Tetrazolium Assay); format: cell-based; settings: Homo sapiens, NCI-H929; H929 cells, 48 hours exposure, cell viability
# Procedure: The cytotoxicity studies were carried out on the H929 multiple myeloma tumour line.
# The cells are distributed onto microplates and exposed to the test compounds for 48 hours.
# The cell viability is then quantified by a colorimetric assay, the Microculture Tetrazolium Assay (Cancer Res., 1987, 47, 939-942).
SMILES,IC50 [1] [µM],IC50 [2] [µM]
"CCN(CC)C(=O)OC(C)OC(=O)C(Cc1ccccc1OCc1ccnc(-c2ccccc2OC)n1)Oc1ncnc2sc(-c3ccc(F)cc3)c(-c3ccc(OCCN4CCN(C)CC4)c(Cl)c3C)c12 [Example 8, 1-[(diethylcarbamoyl)oxy]ethyl (2R)-2-{[(5Sa)-5-{3-chloro-2-methyl-4-[2-(4-methylpiperazin-1-yl)ethoxy]phenyl}-6-(4-fluorophenyl)thieno[2,3-d]pyrimidin-4-yl]oxy}-3-(2-{[2-(2-methoxyphenyl)pyrimidin-4-yl]methoxy}phenyl)propanoate]",1.41,–
"COc1ccccc1-c1nccc(COc2ccccc2CC(Oc2ncnc3sc(-c4ccc(F)cc4)c(-c4ccc(OCCN5CCN(C)CC5)c(Cl)c4C)c23)C(=O)OC(C)OC(=O)N2CCOCC2)n1 [Example 9, 1-{[(2R)-2-{[(5Sa)-5-{3-chloro-2-methyl-4-[2-(4-methylpiperazin-1-yl)ethoxy]phenyl}-6-(4-fluorophenyl)thieno[2,3-d]pyrimidin-4-yl]oxy}-3-(2-{[2-(2-methoxyphenyl)pyrimidin-4-yl]methoxy}phenyl)propanoyl]oxy}ethyl morpholine-4-carboxylate]",0.52,–
"COCCNC(=O)OC(C)OC(=O)C(Cc1ccccc1OCc1ccnc(-c2ccccc2OC)n1)Oc1ncnc2sc(-c3ccc(F)cc3)c(-c3ccc(OCCN4CCN(C)CC4)c(Cl)c3C)c12 [Example 10, 1-{[(2-methoxyethyl)carbamoyl]oxy}ethyl (2R)-2-{[(5Sa)-5-{3-chloro-2-methyl-4-[2-(4-methylpiperazin-1-yl)ethoxy]phenyl}-6-(4-fluorophenyl)thieno[2,3-d]pyrimidin-4-yl]oxy}-3-(2-{[2-(2-methoxyphenyl)pyrimidin-4-yl]methoxy}phenyl) propanoate]",0.147,–
"COCCN(CCOC)C(=O)OC(C)OC(=O)C(Cc1ccccc1OCc1ccnc(-c2ccccc2OC)n1)Oc1ncnc2sc(-c3ccc(F)cc3)c(-c3ccc(OCCN4CCN(C)CC4)c(Cl)c3C)c12 [Example 11, 1-{[bis(2-methoxyethyl)carbamoyl]oxy}ethyl (2R)-2-{[(5Sa)-5-{3-chloro-2-methyl-4-[2-(4-methylpiperazin-1-yl)ethoxy]phenyl}-6-(4-fluorophenyl)thieno[2,3-d]pyrimidin-4-yl]oxy}-3-(2-{[2-(2-methoxyphenyl)pyrimidin-4-yl]methoxy}phenyl)propanoate]",0.551,–
"COC(=O)CN(C)C(=O)OC(C)OC(=O)C(Cc1ccccc1OCc1ccnc(-c2ccccc2OC)n1)Oc1ncnc2sc(-c3ccc(F)cc3)c(-c3ccc(OCCN4CCN(C)CC4)c(Cl)c3C)c12 [Example 12, 1-{[(2-methoxy-2-oxoethyl)(methyl)carbamoyl]oxy}ethyl (2R)-2-{[(5Sa)-5-{3-chloro-2-methyl-4-[2-(4-methylpiperazin-1-yl)ethoxy]phenyl}-6-(4-fluorophenyl)thieno[2,3-d]pyrimidin-4-yl]oxy}-3-(2-{[2-(2-methoxyphenyl)pyrimidin-4-yl]methoxy}phenyl)propanoate]",0.318,–
"COc1ccccc1-c1nccc(COc2ccccc2CC(Oc2ncnc3sc(-c4ccc(F)cc4)c(-c4ccc(OCCN5CCN(C)CC5)c(Cl)c4C)c23)C(=O)OCOP(=O)(O)O)n1 [Example 13, (phosphonooxy)methyl (2R)-2-{[(5Sa)-5-{3-chloro-2-methyl-4-[2-(4-methylpiperazin-1-yl)ethoxy]phenyl}-6-(4-fluorophenyl)thieno[2,3-d]pyrimidin-4-yl]oxy}-3-(2-{[2-(2-methoxyphenyl)pyrimidin-4-yl]methoxy}phenyl)propanoate]",0.0032,–
"CCOC(=O)OC(C)OC(=O)[C@@H](Cc1ccccc1OCc1ccnc(-c2ccccc2OC)n1)Oc1ncnc2sc(-c3ccc(F)cc3)c(-c3c(C)c(Cl)c(OCCN4CCN(C)CC4)c(Cl)c3C)c12 (stereo partly drawn) [Example 15, 1-[(ethoxycarbonyl)oxy]ethyl (2R)-2-{[5-{3,5-dichloro-2,6-dimethyl-4-[2-(4-methylpiperazin-1-yl)ethoxy]phenyl}-6-(4-fluorophenyl)thieno[2,3-d]pyrimidin-4-yl]oxy}-3-(2-{[2-(2-methoxyphenyl)pyrimidin-4-yl]methoxy}phenyl)propanoate]",0.453,0.068
"COc1ccccc1-c1nccc(COc2ccccc2C[C@@H](Oc2ncnc3sc(-c4ccc(F)cc4)c(-c4c(C)c(Cl)c(OCCN5CCN(C)CC5)c(Cl)c4C)c23)C(=O)OC(C)OC(=O)N(C)C)n1 (stereo partly drawn) [Example 17, 1-[(dimethylcarbamoyl)oxy]ethyl (2R)-2-{[5-{3,5-dichloro-2,6-dimethyl-4-[2-(4-methylpiperazin-1-yl)ethoxy]phenyl}-6-(4-fluorophenyl)thieno[2,3-d]pyrimidin-4-yl]oxy}-3-(2-{[2-(2-methoxyphenyl)pyrimidin-4-yl]methoxy}phenyl)propanoate]",1.54,0.702
"COc1ccccc1-c1nccc(COc2ccccc2C[C@@H](Oc2ncnc3sc(-c4ccc(F)cc4)c(-c4c(C)c(Cl)c(OCCN5CCN(C)CC5)c(Cl)c4C)c23)C(=O)O)n1 [Preparation 13, (2R)-2-{[5-{3,5-dichloro-2,6-dimethyl-4-[2-(4-methylpiperazin-1-yl)ethoxy]phenyl}-6-(4-fluorophenyl)thieno[2,3-d]pyrimidin-4-yl]oxy}-3-(2-{[2-(2-methoxyphenyl)pyrimidin-4-yl]methoxy}phenyl)propanoic Acid]",0.00181,0.025
